Several values for one entry are separate records, joined by “and”; a condition that tells them apart may be missing. Identical values can stand only once. Like-named read-outs stand apart in the source and are kept apart here.
Key:
[1] = molecular target: T1, A. gambiae CPR (Anopheles gambiae, UniProt Q86QH5, H459Y/V230A); assay: 2′-5′-ADP Sepharose binding of CPR from whole fly extracts; conditions: crude extracts of A. gambiae
Procedure: 0.1 g of frozen adult A. gambiae or D. melanogaster flies were added to a pre-chilled mortar and ground to a powder in the presence of liquid nitrogen. The powder was transferred to a 50 ml Falcon tube and 2.5 mls of cold solubilisation buffer (20 mM Tris-Cl pH 8; 10% glycerol; 100 mM KCl and 20 mM CHAPS) added. The suspensions were mixed on a rotary wheel at 4° C. for 2 hrs to solubilise the membrane bound proteins, then centrifuged (5 min; 12,000 rpm; 4° C.) to clarify. […] The clarified whole fly protein extracts were applied to the column and the flow-through collected. The column was washed with 5 ml of solubilisation buffer to remove non-binding proteins. To elute the bound proteins, 3×200 μl of 50 mM 2′ AMP in 0.5×solubilisation buffer was added to the mini-columns, and the 3×200 μl elution fractions collected in Eppendorf tubes. To detect CPR, 25 μl each of solubilised pre-column extract (total fly protein); flow through (unbound protein) and eluted proteins were run on a NuPAGE 4-12% Bis-Tris Gel (Invitrogen; UK) and transferred onto Protran® nitrocellulose membrane (Schleicher & Schuell; Germany) according to the manufacturer's instructions. The membrane was blocked overnight at 4° C. in TBST & 5% milk powder, then incubated for 1 hr with a 1:10000 dilution of anti-Ag CPR primary antibody. […]

[2] = molecular target: T2, human CYP3A4 and human CPR (Homo sapiens, UniProt P16435)
T2 sequence (P16435 1-677): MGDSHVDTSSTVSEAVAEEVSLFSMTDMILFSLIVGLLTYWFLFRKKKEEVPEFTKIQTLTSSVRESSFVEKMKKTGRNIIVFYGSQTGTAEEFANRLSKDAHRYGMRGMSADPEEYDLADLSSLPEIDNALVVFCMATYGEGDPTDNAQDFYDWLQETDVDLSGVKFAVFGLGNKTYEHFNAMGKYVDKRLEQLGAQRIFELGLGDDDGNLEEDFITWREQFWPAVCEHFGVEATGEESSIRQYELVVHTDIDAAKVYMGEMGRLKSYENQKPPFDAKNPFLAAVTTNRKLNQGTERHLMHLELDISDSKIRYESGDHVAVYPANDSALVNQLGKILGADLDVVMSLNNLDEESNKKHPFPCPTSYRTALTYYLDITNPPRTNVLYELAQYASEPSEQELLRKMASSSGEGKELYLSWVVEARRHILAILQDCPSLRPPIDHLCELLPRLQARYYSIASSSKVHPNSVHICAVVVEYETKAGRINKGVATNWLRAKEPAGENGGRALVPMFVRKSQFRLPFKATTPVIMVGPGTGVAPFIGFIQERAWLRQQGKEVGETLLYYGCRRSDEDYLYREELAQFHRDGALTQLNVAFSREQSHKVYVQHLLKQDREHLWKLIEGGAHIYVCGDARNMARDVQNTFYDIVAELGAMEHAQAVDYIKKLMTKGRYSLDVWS
Procedure: (§1) Measurement of P450 activity was carried out using E. coli membranes coexpressing A. gambiae CYP6Z2 and AgCPR or human CYP3A4 and human CPR. […] Rates were recorded for 5 min at 37° C. using a fluorescence plate reader (Labsystems Fluoroskan Ascent-FL) set to measure λEx 530 λEm585 (BR assay) or λEx 405 λEm530 (BQ assay). Percentage activities were calculated and IC50 curves were plotted using GraFit version 5.
(§2) For P450 assays, E. coli membranes co-expressing human CYP3A4 and CPR were produced as described. […] Plates were preincubated for 5 min at 37° C. before addition of 5 μl of 5 mM NADPH. Rates were recorded for 5 min at 37° C. using a fluorescence plate reader (Labsystems Fluoroskan Ascent-FL) set to measure λEx 530 λEm585 (BR assay) or λEx 405 λEm530 (BQ assay).
(§3) Percentage activities were calculated and IC50 curves were plotted using GraFit version 5.

[3] = molecular target: T3, human CPR (Homo sapiens, UniProt P16435); assay: Cytochrome c reduction by purified human CPR (inhibition and kinetics); assay type: biochemical; conditions: for IC50: 25° C., 50 μM cytochrome c, 15 μM NADPH
T3 sequence (P16435 43-677 limits assumed): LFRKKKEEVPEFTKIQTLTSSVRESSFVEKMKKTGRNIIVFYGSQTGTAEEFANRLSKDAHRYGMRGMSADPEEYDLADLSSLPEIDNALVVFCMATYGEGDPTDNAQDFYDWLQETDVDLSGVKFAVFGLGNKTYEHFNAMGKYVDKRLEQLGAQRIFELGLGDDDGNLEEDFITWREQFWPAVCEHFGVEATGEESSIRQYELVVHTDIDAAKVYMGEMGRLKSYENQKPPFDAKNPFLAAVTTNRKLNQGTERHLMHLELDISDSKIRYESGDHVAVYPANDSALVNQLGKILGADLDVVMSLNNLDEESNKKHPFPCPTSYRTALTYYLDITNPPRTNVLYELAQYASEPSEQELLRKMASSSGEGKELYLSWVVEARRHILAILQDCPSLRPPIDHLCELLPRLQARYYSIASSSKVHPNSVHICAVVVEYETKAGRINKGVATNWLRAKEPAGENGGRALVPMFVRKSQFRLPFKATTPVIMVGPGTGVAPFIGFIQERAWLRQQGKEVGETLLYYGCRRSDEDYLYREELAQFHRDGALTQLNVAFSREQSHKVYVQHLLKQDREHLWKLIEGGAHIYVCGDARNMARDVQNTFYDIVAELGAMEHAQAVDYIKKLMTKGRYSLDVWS
Procedure: (§4) Errors are deviation from the fit of the curve (GraFit 5.06).
(§5) Cytochrome c assays and enzyme kinetic measurements were carried out 25° C. as described^19, using 0.75 pmol purified AgCPR or hCPR. Apparent kinetic parameters (non-linear fitting: Michaelis-Menten equation) and IC50 values were calculated using GraFit version 5.06.

[4] = test system: A. gambiae CYP6Z2 and AgCPR; assay: 7-benzyloxyresorufin (BR) dealkylation, E. coli membranes coexpressing CYP6Z2 and AgCPR; conditions: read-out: IC50 for inhibition of mosquito CYP6Z2 BR dealkylation; 5 μM BR, 125 microM NADPH, 37° C.
Procedure: as §1, §2, §3

[5] = molecular target: T1, A. gambiae CPR; assay: biochemical; assay type: biochemical
Procedure: as §4, §5

T1 sequence (Q86QH5 entry or part of it V230A/H459Y): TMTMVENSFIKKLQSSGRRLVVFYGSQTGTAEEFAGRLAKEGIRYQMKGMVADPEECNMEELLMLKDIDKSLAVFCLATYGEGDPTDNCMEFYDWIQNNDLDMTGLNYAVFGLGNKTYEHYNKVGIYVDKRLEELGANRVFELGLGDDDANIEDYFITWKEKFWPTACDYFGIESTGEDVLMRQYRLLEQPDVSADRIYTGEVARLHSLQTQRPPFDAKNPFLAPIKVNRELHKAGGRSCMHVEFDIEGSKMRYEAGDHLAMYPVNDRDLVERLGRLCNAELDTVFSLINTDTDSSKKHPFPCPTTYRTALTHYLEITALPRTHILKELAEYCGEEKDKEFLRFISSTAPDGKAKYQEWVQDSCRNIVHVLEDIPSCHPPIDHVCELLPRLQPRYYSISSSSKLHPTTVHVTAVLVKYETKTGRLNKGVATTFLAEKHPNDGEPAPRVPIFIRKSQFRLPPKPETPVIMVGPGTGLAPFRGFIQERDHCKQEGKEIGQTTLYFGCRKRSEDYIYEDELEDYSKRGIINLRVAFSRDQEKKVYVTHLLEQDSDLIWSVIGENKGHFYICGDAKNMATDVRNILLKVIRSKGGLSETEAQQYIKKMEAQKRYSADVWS

With 2′,5′-ADP [2′-5′-ADP] the “binding of CPR to 2′-5′-ADP (Sepharose)” value [1] was “does not bind”, the IC50 [2] was 10 µM and the IC50 ([3]; human CPR) was 28 µM. The IC50 [4] was 234 µM.
`c1ccc([I+]c2ccccc2)cc1` [DPI, diphenyliodonium chloride] showed an IC50 [5] of 28 µM and an IC50 ([3]; human CPR) of 361 µM.
For `NC(=O)C1=CN([C@@H]2O[C@H](COP(=O)(O)OP(=O)(O)OC[C@H]3O[C@@H](n4cnc5c(N)ncnc54)[C@H](OP(=O)(O)O)[C@@H]3O)[C@@H](O)[C@H]2O)C=CC1` [NADPH, reduced form of nicotinamide adenine dinucleotide phosphate], the Km ([5]; read-out: Km NADPH (apparent)) was 30 µM and the Km ([3]; human CPR, read-out: Km NADPH (apparent)) was 14 µM and 15 µM.
With cytochrome c the Km ([5]; mosquito enzyme, read-out: Km cytc) was 23 µM and the Km ([3]; human enzyme, read-out: Km cytc) was 19 µM.
